Results published in ChEMBL document CHEMBL3621100, “Discovery of Novel Class I Histone Deacetylase Inhibitors with Promising in Vitro and in Vivo Antitumor Activities” (J Med Chem, 2015).

Assays:
[1] = target: Histone deacetylase 9 (Homo sapiens, UniProt Q9UKV0); experiment: Inhibition of recombinant human HDAC9 after 60 mins by fluorescence assay
[2] = target: Histone deacetylase 2 (Homo sapiens, UniProt Q92769); experiment: Inhibition of recombinant human HDAC2 after 60 mins by fluorescence assay
[3] = target: T1, Polyamine deacetylase HDAC10 (Homo sapiens, UniProt Q969S8); experiment: Inhibition of recombinant human HDAC10 after 60 mins by fluorescence assay
T1 sequence (Q969S8 whole entry): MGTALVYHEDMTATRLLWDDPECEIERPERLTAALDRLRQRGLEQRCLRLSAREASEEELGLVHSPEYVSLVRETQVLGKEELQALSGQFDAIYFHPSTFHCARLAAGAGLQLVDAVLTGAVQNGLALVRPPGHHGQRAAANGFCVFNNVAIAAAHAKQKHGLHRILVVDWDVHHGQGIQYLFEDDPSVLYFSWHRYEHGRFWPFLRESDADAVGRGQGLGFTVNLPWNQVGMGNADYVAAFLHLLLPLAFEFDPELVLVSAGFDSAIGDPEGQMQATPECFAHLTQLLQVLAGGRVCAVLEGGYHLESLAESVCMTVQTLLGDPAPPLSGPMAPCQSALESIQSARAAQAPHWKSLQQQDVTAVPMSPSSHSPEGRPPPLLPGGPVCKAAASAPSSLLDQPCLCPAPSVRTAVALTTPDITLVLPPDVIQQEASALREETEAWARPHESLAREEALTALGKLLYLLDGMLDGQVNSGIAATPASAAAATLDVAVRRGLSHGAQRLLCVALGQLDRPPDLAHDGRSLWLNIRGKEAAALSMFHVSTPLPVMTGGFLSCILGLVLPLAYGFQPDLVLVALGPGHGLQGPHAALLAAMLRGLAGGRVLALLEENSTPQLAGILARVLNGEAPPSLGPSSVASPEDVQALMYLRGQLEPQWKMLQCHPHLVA

[4] = target: T2, Histone deacetylase 11 (Homo sapiens, UniProt Q96DB2); experiment: Inhibition of recombinant human HDAC11 after 60 mins by fluorescence assay
T2 sequence (Q96DB2 whole entry): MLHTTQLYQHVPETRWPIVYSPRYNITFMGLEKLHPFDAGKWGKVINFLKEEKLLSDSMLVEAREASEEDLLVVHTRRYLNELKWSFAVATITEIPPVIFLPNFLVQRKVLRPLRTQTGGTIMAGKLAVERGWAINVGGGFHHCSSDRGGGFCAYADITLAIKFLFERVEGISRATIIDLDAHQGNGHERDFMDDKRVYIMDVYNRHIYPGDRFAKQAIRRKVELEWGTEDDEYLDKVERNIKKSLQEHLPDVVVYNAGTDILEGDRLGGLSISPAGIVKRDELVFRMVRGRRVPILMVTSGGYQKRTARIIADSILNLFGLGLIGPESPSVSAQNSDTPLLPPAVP

[5] = target: Histone deacetylase 4 (Homo sapiens, UniProt P56524); experiment: Inhibition of recombinant human HDAC4 after 60 mins by fluorescence assay
[6] = target: T3, Histone deacetylase 7 (Homo sapiens, UniProt Q8WUI4); experiment: Inhibition of recombinant human HDAC7 after 60 mins by fluorescence assay
T3 sequence (Q8WUI4 whole entry): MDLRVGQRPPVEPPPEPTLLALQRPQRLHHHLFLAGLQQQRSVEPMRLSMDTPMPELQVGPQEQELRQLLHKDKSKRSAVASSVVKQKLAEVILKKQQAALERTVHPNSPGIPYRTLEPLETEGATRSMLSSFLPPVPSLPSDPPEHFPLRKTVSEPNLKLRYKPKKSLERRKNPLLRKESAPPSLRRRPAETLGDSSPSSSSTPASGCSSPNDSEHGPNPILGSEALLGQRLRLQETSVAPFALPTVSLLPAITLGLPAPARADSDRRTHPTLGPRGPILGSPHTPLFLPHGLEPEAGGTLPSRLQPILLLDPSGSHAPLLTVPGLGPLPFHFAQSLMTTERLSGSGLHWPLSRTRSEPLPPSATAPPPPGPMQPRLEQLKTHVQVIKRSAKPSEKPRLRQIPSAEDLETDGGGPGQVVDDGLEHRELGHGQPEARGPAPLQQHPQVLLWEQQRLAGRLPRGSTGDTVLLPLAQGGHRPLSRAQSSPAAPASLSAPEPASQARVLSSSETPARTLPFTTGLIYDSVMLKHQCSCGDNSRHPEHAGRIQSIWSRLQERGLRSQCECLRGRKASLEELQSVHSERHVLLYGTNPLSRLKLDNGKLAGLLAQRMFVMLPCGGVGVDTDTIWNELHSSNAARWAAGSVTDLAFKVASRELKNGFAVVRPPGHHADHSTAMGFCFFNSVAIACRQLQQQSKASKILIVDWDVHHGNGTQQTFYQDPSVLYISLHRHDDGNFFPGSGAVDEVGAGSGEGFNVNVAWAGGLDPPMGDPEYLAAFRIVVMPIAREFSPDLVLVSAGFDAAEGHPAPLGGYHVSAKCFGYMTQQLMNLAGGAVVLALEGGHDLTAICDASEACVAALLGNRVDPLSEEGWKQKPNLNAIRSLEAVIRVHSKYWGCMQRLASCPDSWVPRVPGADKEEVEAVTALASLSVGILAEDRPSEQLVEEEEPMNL

[7] = target: T4, Protein deacetylase HDAC6 (Homo sapiens, UniProt Q9UBN7); experiment: Inhibition of recombinant human HDAC6 after 60 mins by fluorescence assay
T4 sequence (Q9UBN7 whole entry): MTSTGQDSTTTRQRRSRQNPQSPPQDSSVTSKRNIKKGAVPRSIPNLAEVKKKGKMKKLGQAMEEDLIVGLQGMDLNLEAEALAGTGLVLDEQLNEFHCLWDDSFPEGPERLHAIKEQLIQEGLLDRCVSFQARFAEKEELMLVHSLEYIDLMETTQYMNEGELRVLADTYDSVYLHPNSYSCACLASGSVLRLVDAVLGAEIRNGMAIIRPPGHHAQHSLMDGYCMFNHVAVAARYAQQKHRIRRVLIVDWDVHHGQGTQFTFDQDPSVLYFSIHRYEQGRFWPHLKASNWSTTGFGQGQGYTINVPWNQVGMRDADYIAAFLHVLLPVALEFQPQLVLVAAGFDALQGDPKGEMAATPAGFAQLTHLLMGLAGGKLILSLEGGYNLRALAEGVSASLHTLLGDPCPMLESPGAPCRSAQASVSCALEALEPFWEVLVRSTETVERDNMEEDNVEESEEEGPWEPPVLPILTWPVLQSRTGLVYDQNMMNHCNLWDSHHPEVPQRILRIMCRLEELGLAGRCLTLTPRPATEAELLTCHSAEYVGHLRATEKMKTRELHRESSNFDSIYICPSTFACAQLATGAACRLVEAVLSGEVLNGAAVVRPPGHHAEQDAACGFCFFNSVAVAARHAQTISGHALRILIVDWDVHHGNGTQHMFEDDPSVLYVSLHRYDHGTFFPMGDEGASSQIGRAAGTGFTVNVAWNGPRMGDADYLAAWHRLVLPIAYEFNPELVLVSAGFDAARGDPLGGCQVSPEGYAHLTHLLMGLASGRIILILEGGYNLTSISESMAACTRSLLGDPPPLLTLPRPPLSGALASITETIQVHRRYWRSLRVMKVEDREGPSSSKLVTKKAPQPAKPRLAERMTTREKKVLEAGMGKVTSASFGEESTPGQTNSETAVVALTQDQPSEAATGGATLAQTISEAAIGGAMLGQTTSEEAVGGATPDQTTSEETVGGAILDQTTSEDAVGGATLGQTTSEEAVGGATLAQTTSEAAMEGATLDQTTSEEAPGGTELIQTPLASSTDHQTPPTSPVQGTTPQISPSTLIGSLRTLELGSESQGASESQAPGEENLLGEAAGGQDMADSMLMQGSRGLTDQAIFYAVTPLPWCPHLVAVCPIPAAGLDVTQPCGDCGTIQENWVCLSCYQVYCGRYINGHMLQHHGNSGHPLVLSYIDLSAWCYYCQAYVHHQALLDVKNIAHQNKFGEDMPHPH

[8] = target: Histone deacetylase 5 (Homo sapiens, UniProt Q9UQL6); experiment: Inhibition of recombinant human HDAC5 after 60 mins by fluorescence assay
[9] = target: T5, Histone deacetylase 8 (Homo sapiens, UniProt Q9BY41); experiment: Inhibition of recombinant human HDAC8 after 60 mins by fluorescence assay
T5 sequence (Q9BY41 whole entry): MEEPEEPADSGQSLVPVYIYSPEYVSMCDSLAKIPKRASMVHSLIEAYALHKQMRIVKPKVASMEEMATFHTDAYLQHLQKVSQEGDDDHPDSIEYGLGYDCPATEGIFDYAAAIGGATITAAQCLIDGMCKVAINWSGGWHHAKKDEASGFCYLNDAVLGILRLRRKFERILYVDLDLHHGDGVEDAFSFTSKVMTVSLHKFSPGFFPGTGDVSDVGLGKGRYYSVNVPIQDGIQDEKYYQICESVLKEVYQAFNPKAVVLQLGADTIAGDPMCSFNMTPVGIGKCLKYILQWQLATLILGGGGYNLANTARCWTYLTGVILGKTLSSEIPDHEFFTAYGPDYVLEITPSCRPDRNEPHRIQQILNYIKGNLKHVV

[10] = Antiproliferative activity against human MOLT4 cells after 72 hrs by CCK8 assay; type: functional, MOLT-4
[11] = Antiproliferative activity against human WI38 cells after 72 hrs by CCK8 assay; type: cell-based, WI-38
[12] = tested on: DU-145; experiment: Antiproliferative activity against human DU145 cells after 72 hrs by CCK8 assay; type: functional
[13] = Antiproliferative activity against human HLF cells after 72 hrs by CCK8 assay; type: cell-based
[14] = tested on: U-937; experiment: Antiproliferative activity against human U937 cells after 72 hrs by CCK8 assay; type: functional
[15] = target: Histone deacetylase 1 (Homo sapiens, UniProt Q13547); experiment: Inhibition of recombinant human HDAC1 after 60 mins by fluorescence assay
Sequence of Histone deacetylase 1 (Q13547 whole entry): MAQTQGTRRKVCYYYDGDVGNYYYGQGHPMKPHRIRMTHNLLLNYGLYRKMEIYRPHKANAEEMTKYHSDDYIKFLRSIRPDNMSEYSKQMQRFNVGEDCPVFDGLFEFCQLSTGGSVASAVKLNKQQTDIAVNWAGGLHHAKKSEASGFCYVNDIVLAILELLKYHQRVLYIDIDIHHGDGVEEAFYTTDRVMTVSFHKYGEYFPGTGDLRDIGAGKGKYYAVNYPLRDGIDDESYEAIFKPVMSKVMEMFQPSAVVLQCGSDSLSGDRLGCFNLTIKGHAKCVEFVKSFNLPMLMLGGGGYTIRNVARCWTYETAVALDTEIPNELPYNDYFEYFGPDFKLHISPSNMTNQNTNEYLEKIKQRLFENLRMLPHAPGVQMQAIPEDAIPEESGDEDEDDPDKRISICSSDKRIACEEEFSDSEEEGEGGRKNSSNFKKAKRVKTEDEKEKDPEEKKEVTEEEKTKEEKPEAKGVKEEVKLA

Sequence of Histone deacetylase 5 (Q9UQL6 whole entry): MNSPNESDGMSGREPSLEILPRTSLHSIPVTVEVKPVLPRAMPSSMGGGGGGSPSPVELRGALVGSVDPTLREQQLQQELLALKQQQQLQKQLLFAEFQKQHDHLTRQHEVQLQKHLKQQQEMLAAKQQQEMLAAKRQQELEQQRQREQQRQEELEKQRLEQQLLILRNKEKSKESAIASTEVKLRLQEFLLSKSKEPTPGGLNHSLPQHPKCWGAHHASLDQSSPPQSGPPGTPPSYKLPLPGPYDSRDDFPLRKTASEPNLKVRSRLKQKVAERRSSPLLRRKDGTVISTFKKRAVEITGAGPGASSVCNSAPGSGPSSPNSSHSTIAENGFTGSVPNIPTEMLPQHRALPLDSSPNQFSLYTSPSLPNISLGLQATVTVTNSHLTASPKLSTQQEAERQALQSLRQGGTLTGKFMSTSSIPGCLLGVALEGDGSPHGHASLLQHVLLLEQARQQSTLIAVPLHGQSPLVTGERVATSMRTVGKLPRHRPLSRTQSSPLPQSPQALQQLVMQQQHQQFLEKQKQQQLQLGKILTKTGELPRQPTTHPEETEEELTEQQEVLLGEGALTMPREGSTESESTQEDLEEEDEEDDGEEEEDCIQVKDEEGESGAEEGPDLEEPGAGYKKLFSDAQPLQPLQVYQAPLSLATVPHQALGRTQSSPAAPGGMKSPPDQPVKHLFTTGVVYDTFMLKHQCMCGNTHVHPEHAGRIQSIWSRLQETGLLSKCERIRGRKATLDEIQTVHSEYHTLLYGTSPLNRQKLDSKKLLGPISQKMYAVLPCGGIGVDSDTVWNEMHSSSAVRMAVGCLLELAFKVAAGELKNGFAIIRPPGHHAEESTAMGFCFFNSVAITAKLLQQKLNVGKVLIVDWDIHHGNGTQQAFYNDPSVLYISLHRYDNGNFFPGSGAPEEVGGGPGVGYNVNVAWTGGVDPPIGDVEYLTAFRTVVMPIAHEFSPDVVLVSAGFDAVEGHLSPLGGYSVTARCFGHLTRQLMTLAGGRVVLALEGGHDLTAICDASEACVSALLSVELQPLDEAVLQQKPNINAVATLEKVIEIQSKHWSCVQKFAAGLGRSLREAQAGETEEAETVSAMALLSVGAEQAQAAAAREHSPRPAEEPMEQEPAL
Sequence of Histone deacetylase 9 (Q9UKV0 whole entry): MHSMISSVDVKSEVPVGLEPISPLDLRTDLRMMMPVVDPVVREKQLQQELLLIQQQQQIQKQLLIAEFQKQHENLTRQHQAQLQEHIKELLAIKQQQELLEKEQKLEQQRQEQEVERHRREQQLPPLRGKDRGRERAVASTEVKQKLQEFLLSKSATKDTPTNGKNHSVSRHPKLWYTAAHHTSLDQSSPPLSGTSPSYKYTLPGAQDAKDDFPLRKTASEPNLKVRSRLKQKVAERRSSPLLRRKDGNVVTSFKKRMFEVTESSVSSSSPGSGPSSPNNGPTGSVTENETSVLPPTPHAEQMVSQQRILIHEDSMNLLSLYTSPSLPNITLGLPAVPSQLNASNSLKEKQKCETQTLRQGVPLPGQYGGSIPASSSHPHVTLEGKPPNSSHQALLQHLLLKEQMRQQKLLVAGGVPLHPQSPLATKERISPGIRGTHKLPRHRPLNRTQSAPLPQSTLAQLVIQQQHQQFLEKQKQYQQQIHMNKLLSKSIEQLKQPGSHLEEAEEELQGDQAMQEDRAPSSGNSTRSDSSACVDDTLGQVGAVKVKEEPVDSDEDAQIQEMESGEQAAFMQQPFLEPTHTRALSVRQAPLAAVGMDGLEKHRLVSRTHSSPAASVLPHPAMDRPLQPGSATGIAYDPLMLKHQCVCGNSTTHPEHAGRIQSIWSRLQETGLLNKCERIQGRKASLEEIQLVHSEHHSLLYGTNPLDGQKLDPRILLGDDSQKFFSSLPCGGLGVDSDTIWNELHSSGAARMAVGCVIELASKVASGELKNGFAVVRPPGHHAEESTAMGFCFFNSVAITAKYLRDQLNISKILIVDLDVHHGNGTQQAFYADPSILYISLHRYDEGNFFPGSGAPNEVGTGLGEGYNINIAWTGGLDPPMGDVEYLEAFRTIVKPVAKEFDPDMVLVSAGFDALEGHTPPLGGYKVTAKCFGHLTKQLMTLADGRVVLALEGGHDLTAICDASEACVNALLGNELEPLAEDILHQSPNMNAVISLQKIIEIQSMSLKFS
Sequence of Histone deacetylase 4 (P56524 whole entry): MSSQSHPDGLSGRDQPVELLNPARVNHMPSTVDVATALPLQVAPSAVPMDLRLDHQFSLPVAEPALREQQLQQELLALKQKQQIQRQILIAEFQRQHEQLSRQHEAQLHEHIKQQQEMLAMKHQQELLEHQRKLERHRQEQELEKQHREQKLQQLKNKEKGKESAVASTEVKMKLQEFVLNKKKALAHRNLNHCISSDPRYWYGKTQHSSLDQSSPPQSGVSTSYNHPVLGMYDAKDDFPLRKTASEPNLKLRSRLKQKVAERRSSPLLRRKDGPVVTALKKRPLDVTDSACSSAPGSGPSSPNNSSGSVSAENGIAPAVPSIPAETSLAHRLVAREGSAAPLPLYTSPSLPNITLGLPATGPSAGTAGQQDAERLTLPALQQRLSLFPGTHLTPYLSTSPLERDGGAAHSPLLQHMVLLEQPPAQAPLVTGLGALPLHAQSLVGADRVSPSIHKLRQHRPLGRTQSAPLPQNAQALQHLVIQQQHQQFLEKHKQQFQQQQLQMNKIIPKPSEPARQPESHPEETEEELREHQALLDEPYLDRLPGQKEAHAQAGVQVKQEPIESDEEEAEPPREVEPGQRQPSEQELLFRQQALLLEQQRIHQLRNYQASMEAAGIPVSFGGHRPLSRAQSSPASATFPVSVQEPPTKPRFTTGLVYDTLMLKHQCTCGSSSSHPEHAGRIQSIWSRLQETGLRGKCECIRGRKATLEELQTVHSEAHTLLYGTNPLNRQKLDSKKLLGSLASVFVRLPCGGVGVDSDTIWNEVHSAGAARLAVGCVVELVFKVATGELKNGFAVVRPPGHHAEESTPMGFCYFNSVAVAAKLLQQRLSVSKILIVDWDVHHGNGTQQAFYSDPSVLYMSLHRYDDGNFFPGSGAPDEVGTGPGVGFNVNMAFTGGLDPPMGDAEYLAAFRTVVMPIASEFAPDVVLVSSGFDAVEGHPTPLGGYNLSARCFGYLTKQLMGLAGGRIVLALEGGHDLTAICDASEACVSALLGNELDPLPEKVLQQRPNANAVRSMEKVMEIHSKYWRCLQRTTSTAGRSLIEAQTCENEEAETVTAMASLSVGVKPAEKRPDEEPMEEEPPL
Sequence of Histone deacetylase 2 (Q92769 whole entry): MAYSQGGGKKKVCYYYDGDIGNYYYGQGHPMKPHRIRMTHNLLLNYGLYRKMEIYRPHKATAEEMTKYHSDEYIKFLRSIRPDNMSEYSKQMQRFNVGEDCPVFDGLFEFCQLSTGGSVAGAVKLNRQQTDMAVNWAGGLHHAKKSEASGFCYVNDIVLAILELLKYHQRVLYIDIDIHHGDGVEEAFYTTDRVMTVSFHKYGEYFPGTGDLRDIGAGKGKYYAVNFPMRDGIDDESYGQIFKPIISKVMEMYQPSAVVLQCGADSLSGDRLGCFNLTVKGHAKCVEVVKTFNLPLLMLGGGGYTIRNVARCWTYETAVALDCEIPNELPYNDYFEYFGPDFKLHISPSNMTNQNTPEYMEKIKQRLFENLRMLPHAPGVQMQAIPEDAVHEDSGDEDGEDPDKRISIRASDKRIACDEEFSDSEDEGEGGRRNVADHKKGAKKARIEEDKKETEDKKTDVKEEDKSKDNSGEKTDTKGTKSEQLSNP

C/C=C1\NC(=O)C(CS)NC(=O)[C@@H](C(C)C)NC(=O)C[C@@H](/C=C/CCS)OC(=O)[C@H](C(C)C)NC1=O (single isomer, unassigned) [FR-135313]
IC50 [1]: > 10 µM | IC50 [2]: 0.0014 µM | IC50 [3]: 0.0039 µM | IC50 [4]: 2.36 µM | IC50 [5]: 9.57 µM | IC50 [6]: 1.76 µM | IC50 [7]: 0.149 µM | IC50 [8]: > 10 µM | IC50 [9]: 0.025 µM

O=C(CCCCCCC(=O)Nc1ccccc1)NO [VORINOSTAT]
GI50 [10]: 0.542 µM | GI50 at 72 h [11]: 6.08 µM | GI50 [12]: 1.59 µM | GI50 at 72 h [13]: 1.65 µM | GI50 [14]: 1.46 µM

C/C=C1\NC(=O)[C@H]2CSSCC/C=C/[C@H](CC(=O)N[C@H](C(C)C)C(=O)N2)OC(=O)[C@H](C(C)C)NC1=O [ROMIDEPSIN]
IC50 [1]: > 10 µM | GI50 at 72 h [11]: 0.00539 µM | IC50 [3]: 0.011 µM | GI50 at 72 h [13]: 0.00489 µM | IC50 [4]: > 10 µM | IC50 [5]: > 10 µM | IC50 [6]: > 10 µM | IC50 [15]: 1.05 µM | IC50 [8]: > 10 µM

CCCCCCCC(=O)SCC/C=C/[C@@H]1CC(=O)NCc2nc(cs2)C2=N[C@@](C)(CS2)C(=O)N[C@@H](C(C)C)C(=O)O1 [LARGAZOLE]
IC50 [1]: > 10 µM | IC50 [2]: 1.01 µM | GI50 ([10]; Homo sapiens, MOLT-4, 72 h): 0.0162 µM | GI50 at 72 h [11]: 0.0825 µM | IC50 [3]: 2.21 µM | GI50 ([12]; Homo sapiens, DU-145, 72 h): 0.011 µM | GI50 at 72 h [13]: 0.0397 µM | IC50 [4]: > 10 µM | IC50 [5]: > 10 µM | IC50 [6]: > 10 µM | IC50 [15]: 0.0698 µM | GI50 ([14]; Homo sapiens, U-937, 72 h): 0.0168 µM | IC50 [8]: > 10 µM | IC50 [9]: > 10 µM
